Assay results taken from PubChem BioAssay AID1963842 (Molecular Pharmacology Branch, DTP, NCI, 2024).

Tested on: 677734-321-R-J1-PDC complex spheroid viability
Experiment: Anticancer human tumor 677734-321-R-J1-PDC patient-derived soft tissue sarcoma cell line growth inhibition [POLQ]
Details: for IC50: curve of first compound; for viability, T/C: stronger effect = lower value
In short: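 Growth inhibition in 3D: complex spheroids (tumor PDC, HUVEC, MSC) treated with POLQ inhibitor combinations; where Cmax unknown, highest tested concentration 10 microM, except SN-38 at 1 microM.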

[1] = second compound 0.0316 µM, first compound 0.0316 µM
[2] = second compound 0.0316 µM, first compound 0.1 µM
[3] = second compound 0.0316 µM, first compound 0.316 µM
[4] = second compound 0.0316 µM, first compound 1 µM
[5] = second compound 0.0316 µM, first compound 3.16 µM
[6] = second compound 0.0316 µM, first compound 10 µM
[7] = second compound 0.1 µM, first compound 0.0316 µM
[8] = second compound 0.1 µM, first compound 0.1 µM
[9] = second compound 0.1 µM, first compound 0.316 µM
[10] = second compound 0.1 µM, first compound 1 µM
[11] = second compound 0.1 µM, first compound 3.16 µM
[12] = second compound 0.1 µM, first compound 10 µM
[13] = second compound 0.316 µM, first compound 0.0316 µM
[14] = second compound 0.316 µM, first compound 0.1 µM
[15] = second compound 0.316 µM, first compound 0.316 µM
[16] = second compound 0.316 µM, first compound 1 µM
[17] = second compound 0.316 µM, first compound 3.16 µM
[18] = second compound 0.316 µM, first compound 10 µM
[19] = second compound 1 µM, first compound 0.0316 µM
[20] = second compound 1 µM, first compound 0.1 µM
[21] = second compound 1 µM, first compound 0.316 µM
[22] = second compound 1 µM, first compound 1 µM
[23] = second compound 1 µM, first compound 3.16 µM
[24] = second compound 1 µM, first compound 10 µM
[25] = second compound 3.16 µM, first compound 0.0316 µM
[26] = second compound 3.16 µM, first compound 0.1 µM
[27] = second compound 3.16 µM, first compound 0.316 µM
[28] = second compound 3.16 µM, first compound 1 µM
[29] = second compound 3.16 µM, first compound 3.16 µM
[30] = second compound 3.16 µM, first compound 10 µM
[31] = second compound 10 µM, first compound 0.0316 µM
[32] = second compound 10 µM, first compound 0.1 µM
[33] = second compound 10 µM, first compound 0.316 µM
[34] = second compound 10 µM, first compound 1 µM
[35] = second compound 10 µM, first compound 3.16 µM
[36] = second compound 10 µM, first compound 10 µM
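Note: spheroids exposed to compounds for one week.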
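Throughout, for viability, T/C: 100% = vehicle DMSO treated spheroids.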

C#Cc1c(F)ccc2cc(O)cc(-c3ncc4c(N5CC6CCC(C5)N6)nc(OCC56CCCN5CC(F)C6)nc4c3F)c12 (stereo not drawn) + Nc1ccc(C#CCN(C(=O)Cc2ncc(C(F)(F)F)cc2C(F)(F)F)c2ccc(F)cc2)nn1
IC50 (second compound 0.0316 µM): > 10 µM | IC50 (second compound 0.1 µM): > 10 µM | IC50 (second compound 0.316 µM): > 10 µM | IC50 (second compound 1 µM): > 10 µM | IC50 (second compound 3.16 µM): > 10 µM | IC50 (second compound 10 µM): > 10 µM | viability, T/C [1]: 104% | viability, T/C [2]: 117% | viability, T/C [3]: 115% | viability, T/C [4]: 117% | viability, T/C [5]: 115% | viability, T/C [6]: 98.7% | viability, T/C [7]: 106% | viability, T/C [8]: 116% | viability, T/C [9]: 112% | viability, T/C [10]: 118% | viability, T/C [11]: 98.4% | viability, T/C [12]: 79.6% | viability, T/C [13]: 113% | viability, T/C [14]: 124% | viability, T/C [15]: 96.9% | viability, T/C [16]: 110% | viability, T/C [17]: 103% | viability, T/C [18]: 103% | viability, T/C [19]: 105% | viability, T/C [20]: 104% | viability, T/C [21]: 109% | viability, T/C [22]: 114% | viability, T/C [23]: 119% | viability, T/C [24]: 94.1% | viability, T/C [25]: 114% | viability, T/C [26]: 98% | viability, T/C [27]: 122% | viability, T/C [28]: 111% | viability, T/C [29]: 96.8% | viability, T/C [30]: 96.5% | viability, T/C [31]: 107% | viability, T/C [32]: 99.8% | viability, T/C [33]: 112% | viability, T/C [34]: 108% | viability, T/C [35]: 94.8% | viability, T/C [36]: 88.8%

C=CC(=O)N1CCN(c2nc(=O)n(-c3c(C)ccnc3C(C)C)c3nc(-c4c(O)cccc4F)c(F)cc23)C(C)C1 (stereo not drawn) + Nc1ccc(C#CCN(C(=O)Cc2ncc(C(F)(F)F)cc2C(F)(F)F)c2ccc(F)cc2)nn1
IC50 (second compound 0.0316 µM): > 10 µM | IC50 (second compound 0.1 µM): > 10 µM | IC50 (second compound 0.316 µM): > 10 µM | IC50 (second compound 1 µM): > 10 µM | IC50 (second compound 3.16 µM): > 10 µM | IC50 (second compound 10 µM): 9.87 µM | viability, T/C [1]: 114% | viability, T/C [2]: 116% | viability, T/C [3]: 101% | viability, T/C [4]: 101% | viability, T/C [5]: 89.2% | viability, T/C [6]: 74.4% | viability, T/C [7]: 107% | viability, T/C [8]: 104% | viability, T/C [9]: 93.7% | viability, T/C [10]: 118% | viability, T/C [11]: 82.7% | viability, T/C [12]: 63.5% | viability, T/C [13]: 94.4% | viability, T/C [14]: 94.9% | viability, T/C [15]: 101% | viability, T/C [16]: 109% | viability, T/C [17]: 86.9% | viability, T/C [18]: 69.4% | viability, T/C [19]: 112% | viability, T/C [20]: 96.6% | viability, T/C [21]: 92.4% | viability, T/C [22]: 103% | viability, T/C [23]: 104% | viability, T/C [24]: 52.4% | viability, T/C [25]: 107% | viability, T/C [26]: 106% | viability, T/C [27]: 111% | viability, T/C [28]: 102% | viability, T/C [29]: 103% | viability, T/C [30]: 56.6% | viability, T/C [31]: 136% | viability, T/C [32]: 99.3% | viability, T/C [33]: 107% | viability, T/C [34]: 111% | viability, T/C [35]: 85.4% | viability, T/C [36]: 48.7%

CC(C)n1c(=O)n(C)c2cnc3cc(F)c(-c4ccc(OCCCN5CCCCC5)nc4)cc3c21 + Nc1ccc(C#CCN(C(=O)Cc2ncc(C(F)(F)F)cc2C(F)(F)F)c2ccc(F)cc2)nn1
IC50 (second compound 0.0316 µM): > 10 µM | IC50 (second compound 0.1 µM): > 10 µM | IC50 (second compound 0.316 µM): > 10 µM | IC50 (second compound 1 µM): > 10 µM | IC50 (second compound 3.16 µM): > 10 µM | IC50 (second compound 10 µM): > 10 µM | viability, T/C [1]: 94% | viability, T/C [2]: 106% | viability, T/C [3]: 103% | viability, T/C [4]: 97.1% | viability, T/C [5]: 87.7% | viability, T/C [6]: 101% | viability, T/C [7]: 99% | viability, T/C [8]: 102% | viability, T/C [9]: 92.2% | viability, T/C [10]: 81.5% | viability, T/C [11]: 72.6% | viability, T/C [12]: 88.8% | viability, T/C [13]: 90.2% | viability, T/C [14]: 92.7% | viability, T/C [15]: 98% | viability, T/C [16]: 112% | viability, T/C [17]: 84.9% | viability, T/C [18]: 94.2% | viability, T/C [19]: 109% | viability, T/C [20]: 85.9% | viability, T/C [21]: 93.6% | viability, T/C [22]: 80.5% | viability, T/C [23]: 84.9% | viability, T/C [24]: 96.3% | viability, T/C [25]: 112% | viability, T/C [26]: 102% | viability, T/C [27]: 95% | viability, T/C [28]: 105% | viability, T/C [29]: 83.3% | viability, T/C [30]: 103% | viability, T/C [31]: 85.3% | viability, T/C [32]: 96.3% | viability, T/C [33]: 93.3% | viability, T/C [34]: 79.5% | viability, T/C [35]: 93% | viability, T/C [36]: 89.2%

CC1COCCN1c1cc(-c2ccnn2C)c2ccnc(-c3ccn[nH]3)c2n1 (stereo not drawn) + Nc1ccc(C#CCN(C(=O)Cc2ncc(C(F)(F)F)cc2C(F)(F)F)c2ccc(F)cc2)nn1
IC50 (second compound 0.0316 µM): 0.0877 µM | IC50 (second compound 0.1 µM): 0.0694 µM | IC50 (second compound 0.316 µM): 0.0595 µM | IC50 (second compound 1 µM): 0.0605 µM | IC50 (second compound 3.16 µM): 0.0566 µM | IC50 (second compound 10 µM): 0.0551 µM | viability, T/C [1]: 74.6% | viability, T/C [2]: 46.8% | viability, T/C [3]: 11.6% | viability, T/C [4]: 8.34% | viability, T/C [5]: 8.12% | viability, T/C [6]: 8.31% | viability, T/C [7]: 92.1% | viability, T/C [8]: 30.4% | viability, T/C [9]: 10.6% | viability, T/C [10]: 9.63% | viability, T/C [11]: 8.82% | viability, T/C [12]: 8.21% | viability, T/C [13]: 82.1% | viability, T/C [14]: 23.7% | viability, T/C [15]: 8.36% | viability, T/C [16]: 8.25% | viability, T/C [17]: 7.35% | viability, T/C [18]: 8.3% | viability, T/C [19]: 89.5% | viability, T/C [20]: 19.4% | viability, T/C [21]: 9.09% | viability, T/C [22]: 10.1% | viability, T/C [23]: 7.46% | viability, T/C [24]: 7.2% | viability, T/C [25]: 77% | viability, T/C [26]: 21.9% | viability, T/C [27]: 17.6% | viability, T/C [28]: 8.48% | viability, T/C [29]: 7.93% | viability, T/C [30]: 7.03% | viability, T/C [31]: 82.8% | viability, T/C [32]: 15% | viability, T/C [33]: 9.59% | viability, T/C [34]: 9.21% | viability, T/C [35]: 10.5% | viability, T/C [36]: 11.5%
